# Patent US7435837B2, “Dihydrobenzofuranyl alkanamine derivatives and methods for using same” (Wyeth, priority 2003, dated 2008)
# Where “and” joins values, the source holds several entries; their conditions need not be identical. Equal entries are not always repeated. Structures can show the parent of a compound that is named as a salt.
row,SMILES,melting point
1,"Cc1ccccc1-c1cccc2c1OC(CN)C2 (single isomer, unassigned; (+)) (as salt: hydrochloride) [Example 48, (+)-1-[7-(2-methylphenyl)-2,3-dihydro-1-benzofuran-2-yl]methanamine]",211 to 212 °C
2,"NCC1Cc2cccc(-c3ccc(F)cc3)c2O1 (racemic) (as salt: hydrochloride) [Example 73, (±)-1-[7-(4-fluorophenyl)-2,3-dihydro-1-benzofuran-2-yl]methanamine]",237 to 240 °C
3,"Cc1ccccc1-c1cc(F)cc2c1OC(CN)C2 (racemic) (as salt: hydrochloride) [Example 104, (±)-1-[5-fluoro-7-(2-methylphenyl)-2,3-dihydro-1-benzofuran-2-yl]methanamine]",229 to 234 °C
4,"NCC1Cc2cccc(-c3ccccc3Cl)c2O1 (racemic) (as salt: hydrochloride) [Example 60, (±)-1-[7-(2-chlorophenyl)-2,3-dihydro-1-benzofuran-2-yl]methanamine]",> 250 °C
5,"NCC1Cc2cc(F)cc(-c3ccccc3C(F)(F)F)c2O1 (racemic) (as salt: hydrochloride) [Example 108, (±)-1-{5-fluoro-7-[2-(trifluoromethyl)phenyl]-2,3-dihydro-1-benzofuran-2-yl}methanamine]",196 to 198 °C (dec.)
6,"NCC1Cc2cccc(-c3ccc(F)cc3)c2O1 (single isomer, unassigned; (-)) (as salt: hydrobromid) [Example 75, (−)-1-[7-(4-fluorophenyl)-2,3-dihydro-1-benzofuran-2-yl]methanamine]",208 to 210 °C
7,"NC[C@H]1Cc2cc(F)cc(-c3c(Cl)cccc3Cl)c2O1 (as salt: hydrochloride) [Example 550, (−)-{[7-(2,6-dichlorophenyl)-5-fluoro-2,3-dihydro-1-benzofuran-2-yl]methyl}amine]",228 to 230 °C and 231 to 233 °C
8,"Cc1ccccc1-c1ccc(F)c2c1OC(CN)C2 (racemic) (as salt: hydrochloride) [Example 99, (±)-1-[4-fluoro-7-(2-methylphenyl)-2,3-dihydro-1-benzofuran-2-yl]methanamine]",228 to 231 °C

# More lines, now with the values ahead:
row,melting point,SMILES
1,193 to 197 °C,"NCC1Cc2cc(F)cc(-c3ccccc3C(F)(F)F)c2O1 (single isomer, unassigned; (+)) (as salt: hydrochloride) [Example 152, (+)-1-{5-fluoro-7-[2-(trifluoromethyl)phenyl]-2,3-dihydro-1-benzofuran-2-yl}methanamine]"
2,201 to 203 °C,"NCC1Cc2cc(Cl)cc(-c3ccccc3)c2O1 (single isomer, unassigned; (+)) (as salt: hydrobromid) [Example 85, (+)-1-(5-chloro-7-phenyl-2,3-dihydro-1-benzofuran-2-yl)methanamine]"
3,251 to 252 °C,"CC1(CN)Cc2cc(Cl)cc(-c3cccs3)c2O1 (racemic) (as salt: hydrochloride) [Example 114, (±)-(5-chloro-2-methyl-7-thien-2-yl-2,3-dihydro-1-benzofuran-2-yl)methylamine]"
4,231 to 232 °C,"Cc1ccc(-c2cccc3c2OC(CN)C3)cc1 (racemic) (as salt: hydrochloride) [Example 70, (±)-1-[7-(4-methylphenyl)-2,3-dihydro-1-benzofuran-2-yl]methanamine]"
5,165 to 168 °C,"NCC1Cc2cccc(-c3cc(Cl)cc(Cl)c3)c2O1 (racemic) (as salt: hydrochloride) [Example 35, (±)-1-[7-(3,5-dichlorophenyl)-2,3-dihydro-1-benzofuran-2-yl]methanamine]"
